# Data: patent publication US9459250B2, “Use of T1R3 venus flytrap region polypeptide to screen for taste modulators” (SENOMYX, INC., priority 2003, dated 2016)
# “Also recorded” adds a separate entry of the source. Where two headings read alike, the source gives them in different places. Where a SMILES comes first, the peptide text is derived from it.
# How the values were obtained:
# [1] = biological target: T1, T1R1/T1R3 (Homo sapiens (Human), UniProt Q7RTX0+Q7RTX1); test: Umami FLIPR assay, HEK-Gα15 clone I-17 inducibly expressing T1R1/T1R3; type: cell-based; details: for EC50: Table 1 Umami Amides
# Experimental: A dose-dependent response curve was determined for a compound, and the compound concentration corresponding to 50% of the maximal response was derived from the curve, in one example.
# Regarding umami tastants and enhancers, scores of their activities can be given as percentage of the maximum MSG intensity (%). In compound dose response, an EC50 can be calculated to reflect the potency of the compound as umami agonist.
# (§1) HEK-Gα15 cells were engineered to inducibly express T1R1/T1R3 using the GeneSwitch system (Invitrogen). pGene-derived zeocin-resistant expression vectors for human T1R1 and T1R3 (plasmid SXV603 for T1R1 and SXV611 for T1R3) and a puromycin-resistant pSwitch-derived vector that carries the GeneSwitch protein (plasmid SXV628) were linearized and cotransfected into the HEK-Gα15 cell line. Zeocin-resistant and puromycin-resistant colonies were selected, expanded, induced with variable amounts of mifepristone, and tested by calcium imaging for responses to umami taste stimuli. […] After replacement with 50 μl PBS, stimulation was performed at room temperature by the addition of 50 μl PBS supplemented with different stimuli. The maximal fluorescence from four independent determinations were averaged, corrected for background fluorescence measured prior to compound addition, and normalized to the response to 0.002 mM ionomycin (CALBIOCHEM).
# [2] = biological target: T1, T1R1/T1R3; test: Umami enhancement assay: MSG dose response with and without compound; type: cell-based; details: Table 1; compound @ 1 uM
# Experimental: In enhancement assay experiments, a MSG dose response was run and a second MSG dose response was run with a certain amount of candidate compound at every MSG concentrations at the same time. Then, the EC50 ratio is calculated based on the following definitions: EC50 Ratio=EC50(MSG)/EC50(MSG+[Compound])
# wherein “[compound]” refers to the concentration of compound used to elicit (or enhance or potentiate) the MSG dose response. Those concentrations can vary from a pM to an mM, more preferred, from a low nM to μM.
# as §1
# [3] = biological target: hT1R2/hT1R3 (Homo sapiens (Human), UniProt Q7RTX0+Q8TE23); test: Sweet FLIPR assay, hT1R2/hT1R3-HEK293-Gα15 S-9 cells; type: cell-based; details: Table 5 Sweet Enhancer Amides
# Experimental: Compounds were initially selected based on their activity on the hT1R2/hT1R3-HEK293-Gα15 cell line (Li, et al. vide supra). Activity was determined using an automated fluorometric imaging assay on a FLIPR instrument (Fluorometric Intensity Plate Reader, Molecular Devices, Sunnyvale, Calif.) (designated FLIPR assay). […] S-9 cells were grown for 24 hours at 37° C. S-9 cells were then loaded with the calcium dye Fluo-3AM (Molecular Probes, Eugene, Oreg.), 4 μM in a phosphate buffered saline (D-PBS) (Invitrogen, Carlsbad, Calif.), for 1 hour at room temperature. After replacement with 25 μl D-PBS, stimulation was performed in the FLIPR instrument and at room temperature by the addition of 25 μl D-PBS supplemented with different stimuli at concentrations corresponding to twice the desired final level.
# For dose-responses analysis, stimuli were presented in duplicates at 10 different concentrations ranging from 60 nM to 30 μM. Activities were normalized to the response obtained with 400 mM D-fructose, a concentration that elicits maximum receptor response. Ec50s were determined using a non-linear regression algorithm (using Senomyx, Inc. software), where the Hill slope, bottom asymptotes and top asymptotes were allow to vary.
# [4] = system: HEK293-Gα15 cells; test: FLIPR assay on HEK293-Gα15 cells not expressing the human sweet receptor; type: cell-based
# Source text: In order to determine the dependency of hT1R2/hT1R3 for the cell response to different stimuli, selected compounds were subjected to a similar analysis on HEK293-Gα15 cells (not expressing the human sweet receptor).
# [5] = biological target: human sweet receptor (Homo sapiens (Human), UniProt Q7RTX0+Q8TE23); test: Dose responses of human sweet receptor with lactisole; type: cell-based; details: read-out: EC50 of sweetener
# Source text: Values represent the mean±SE for four independent responses.
# [6] = biological target: T1, T1R1/T1R3; test: FLIPR dose responses of human T1R1/T1R3 stable cell line with modulators; type: cell-based; details: for effect of control sweeteners on activities of T1R1/T1R3 umami taste receptor: [Steviocide]=0.5 mM, [Saccharin]=1 mM, glutamate and glutamate/IMP dose responses
# Source text: (§2) “Detection thresholds” are defined as the lower limit of detectable tastants. The detection threshold values were averaged over four trials for three subjects. […] The activities in B, C, E and F represent the mean±SE of fold increases in fluorescence intensities for four recorded wells. The dose-responses in B, C, E and F were reproduced at least 6 times independently.
# Human cell lines that stably co-express human T1R2/T1R3 or human T1R1/T1R3 were generated by transfecting linearized PEAK10-derived (Edge Biosystems) vectors and pcDNA 3.1/ZEO-derived (Invitrogen) vectors respectively containing hT1R1 or hT1R2 expression construct (plasmid SAV2485 for T1R1, SAV2486 for T1R2) and hT1R3 (plasmid SXV550 for T1R3) into a Gα15 expressing cell line. […] Following SAV2485/SXV550 and SAV2486/SXV550 transfections, puromycin-resistant and zeocin-resistant colonies were selected, expanded, and tested by calcium imaging for responses to sweet or umami taste stimuli. Cells were selected in 0.0005 mg/ml puromycin (CALBIOCHEM) and 0.1 mg/ml zeocin (Invitrogen) at 37° C. in low-glucose DMEM supplemented with GlutaMAX, 10% dialyzed FBS, and 0.003 mg/ml blasticidin. Resistant colonies were expanded, and their responses to sweet taste stimuli evaluated by Fluorescence microscopy. For automated fluorimetric imaging on VIPR-II instrumentation (Aurora Biosciences), T1R2/T1R3 stable cells were first seeded onto 96-well plates (approximately 100,000 cells per well).
# [7] = biological target: T1, T1R1/T1R3; test: Calcium imaging of HEK-Gα15 cells transiently transfected with human T1R1/T1R3; type: cell-based
# [8] = system: endogenous muscarinic acetylcholine receptor; test: Endogenous muscarinic acetylcholine receptor response in HEK cells; type: cell-based; details: carbachol
# Source text: as §2
# [9] = biological target: mT2R5 (Mus musculus (Mouse), UniProt Q9JKT4); test: Mouse bitter receptor mT2R5 transiently expressed in HEK cells; type: cell-based
# Source text: As was the case for the T1R2/T1R3 receptor, lactisole inhibition of the T1R1/T1R3 response to umami taste stimuli was reversible following washout and restimulation.
# [10] = Human taste detection thresholds in the presence of lactisole; type: in vivo; details: millimolar (1 and 2 mM) lactisole, human subjects
# Source text: as §2
# The present inventors then evaluated the effect of lactisole on human umami taste.
# Sequence of human sweet receptor (Q8TE23 other isoform, or with tags, fused parts or gaps): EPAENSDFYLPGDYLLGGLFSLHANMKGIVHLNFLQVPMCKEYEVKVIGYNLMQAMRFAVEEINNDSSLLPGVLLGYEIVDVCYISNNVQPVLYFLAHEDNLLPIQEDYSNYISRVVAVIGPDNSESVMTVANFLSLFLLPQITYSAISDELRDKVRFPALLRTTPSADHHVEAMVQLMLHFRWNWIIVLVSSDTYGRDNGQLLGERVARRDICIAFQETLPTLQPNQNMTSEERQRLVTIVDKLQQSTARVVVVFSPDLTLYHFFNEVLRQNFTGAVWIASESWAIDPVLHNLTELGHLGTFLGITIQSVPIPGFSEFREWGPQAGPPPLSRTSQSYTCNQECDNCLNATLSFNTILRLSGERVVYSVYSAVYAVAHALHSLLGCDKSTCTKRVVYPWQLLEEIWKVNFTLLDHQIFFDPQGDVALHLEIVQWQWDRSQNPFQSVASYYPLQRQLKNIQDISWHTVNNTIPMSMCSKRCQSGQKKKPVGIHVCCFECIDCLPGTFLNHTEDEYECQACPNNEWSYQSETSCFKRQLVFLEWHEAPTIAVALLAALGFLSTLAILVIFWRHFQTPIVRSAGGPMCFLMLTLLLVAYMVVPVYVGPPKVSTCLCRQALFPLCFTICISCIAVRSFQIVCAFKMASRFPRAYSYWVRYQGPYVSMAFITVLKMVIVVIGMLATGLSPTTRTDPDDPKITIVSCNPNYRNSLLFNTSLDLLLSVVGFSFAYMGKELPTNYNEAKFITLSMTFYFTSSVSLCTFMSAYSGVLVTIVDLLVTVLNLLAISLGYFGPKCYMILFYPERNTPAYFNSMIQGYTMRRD
# Sequence of human sweet receptor (Q7RTX0 21-852 C757R): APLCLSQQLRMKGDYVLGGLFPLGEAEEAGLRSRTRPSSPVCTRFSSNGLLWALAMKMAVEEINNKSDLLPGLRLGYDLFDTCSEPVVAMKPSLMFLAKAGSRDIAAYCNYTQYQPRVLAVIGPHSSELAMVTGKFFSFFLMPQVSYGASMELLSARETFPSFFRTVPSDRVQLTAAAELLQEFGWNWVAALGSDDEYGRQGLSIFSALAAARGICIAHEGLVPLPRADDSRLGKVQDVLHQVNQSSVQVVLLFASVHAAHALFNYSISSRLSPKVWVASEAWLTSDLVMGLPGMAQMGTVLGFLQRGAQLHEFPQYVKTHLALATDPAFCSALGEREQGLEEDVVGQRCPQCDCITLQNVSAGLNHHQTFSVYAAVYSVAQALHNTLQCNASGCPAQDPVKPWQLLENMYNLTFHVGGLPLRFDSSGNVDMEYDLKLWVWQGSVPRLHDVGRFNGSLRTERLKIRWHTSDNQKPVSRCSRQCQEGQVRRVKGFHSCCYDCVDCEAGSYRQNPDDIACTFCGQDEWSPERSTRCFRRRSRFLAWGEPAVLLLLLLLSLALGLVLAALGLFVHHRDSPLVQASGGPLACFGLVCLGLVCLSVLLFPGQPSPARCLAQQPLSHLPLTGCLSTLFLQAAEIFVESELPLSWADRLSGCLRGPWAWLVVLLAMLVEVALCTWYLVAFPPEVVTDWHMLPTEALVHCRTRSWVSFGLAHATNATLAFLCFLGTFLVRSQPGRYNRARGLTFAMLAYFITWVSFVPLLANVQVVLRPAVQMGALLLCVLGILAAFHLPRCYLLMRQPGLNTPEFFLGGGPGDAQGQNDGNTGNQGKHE
# Sequence of hT1R2/hT1R3 (Q8TE23 other isoform, or with tags, fused parts or gaps): as the sequence (Q8TE23 other isoform, or with tags, fused parts or gaps) above
# Sequence of hT1R2/hT1R3 (Q7RTX0 21-852 C757R): as the sequence (Q7RTX0 21-852 C757R) above
# T1 sequence (Q7RTX1 21-841): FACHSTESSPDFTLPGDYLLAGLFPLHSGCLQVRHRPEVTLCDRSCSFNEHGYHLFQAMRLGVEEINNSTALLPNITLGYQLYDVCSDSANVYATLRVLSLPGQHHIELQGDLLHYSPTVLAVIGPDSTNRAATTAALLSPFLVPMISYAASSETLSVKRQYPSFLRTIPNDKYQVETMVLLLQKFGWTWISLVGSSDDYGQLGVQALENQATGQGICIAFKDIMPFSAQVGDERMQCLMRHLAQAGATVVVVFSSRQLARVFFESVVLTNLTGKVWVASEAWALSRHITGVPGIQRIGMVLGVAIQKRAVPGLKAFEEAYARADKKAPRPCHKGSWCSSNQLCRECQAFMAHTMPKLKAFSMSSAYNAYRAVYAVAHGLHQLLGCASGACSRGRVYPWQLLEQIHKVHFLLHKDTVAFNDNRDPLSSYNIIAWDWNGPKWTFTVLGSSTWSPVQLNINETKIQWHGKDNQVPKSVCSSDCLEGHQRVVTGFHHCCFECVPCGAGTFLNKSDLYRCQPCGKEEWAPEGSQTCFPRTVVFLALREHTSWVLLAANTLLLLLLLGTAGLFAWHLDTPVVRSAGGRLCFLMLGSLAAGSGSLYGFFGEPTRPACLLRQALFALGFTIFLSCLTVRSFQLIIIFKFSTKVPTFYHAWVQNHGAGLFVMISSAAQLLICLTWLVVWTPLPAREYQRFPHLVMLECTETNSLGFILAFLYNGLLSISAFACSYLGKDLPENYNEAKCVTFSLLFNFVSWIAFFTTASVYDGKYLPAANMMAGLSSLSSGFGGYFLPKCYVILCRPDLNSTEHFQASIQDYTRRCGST
# T1 sequence (Q7RTX0 21-852 C757R): as the sequence (Q7RTX0 21-852 C757R) above
# Sequence of mT2R5 (Q9JKT4 whole entry): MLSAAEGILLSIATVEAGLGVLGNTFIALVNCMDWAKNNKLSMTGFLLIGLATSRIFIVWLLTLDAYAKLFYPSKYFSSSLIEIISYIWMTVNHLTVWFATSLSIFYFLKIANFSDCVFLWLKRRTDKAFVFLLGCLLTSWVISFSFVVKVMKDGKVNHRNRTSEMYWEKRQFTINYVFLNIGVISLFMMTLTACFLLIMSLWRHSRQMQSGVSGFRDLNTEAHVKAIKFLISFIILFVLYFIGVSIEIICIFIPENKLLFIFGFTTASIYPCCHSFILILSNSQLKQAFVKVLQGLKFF
smiles,measurement,setting,value
CCCC(CCC)NC(=O)c1cc2cc(C)ccc2o1 [Compound A10],EC50,[1],0.91 µM
same,Ec50 ratio (vs. MSG),[2],4.51
CCC[C@@H](NC(=O)c1ccc(OC)c(Cl)c1)C(=O)OC [Compound A67],EC50,[1],0.29 µM
same,Ec50 ratio (vs. MSG),[2],10.75
"COc1cccc2c1CCCC2NC(=O)c1cc(O)ccc1O (stereo not drawn) [Compound E18, 2,5-dihydroxy-N-(5-methoxy-1,2,3,4-tetrahydronaphthalen-1-yl)benzamide]",EC50,[3],3.38 µM
"Cc1oncc1C(=O)N[C@@H]1CCCc2ccccc21 [Compound E26, (R)-5-methyl-N-(1,2,3,4-tetrahydronaphthalen-1-yl)isoxazole-4-carboxamide]",EC50,[3],8.09 µM
"Cc1cc(C)c(C(=O)NC2CCCCCC2)c(C)c1 [Compound E49, N-cycloheptyl-2,4,6-trimethylbenzamide]",EC50,[3],1.39 µM
"O=C(CO)[C@@H](O)[C@H](O)[C@H](O)CO [D-Fructose, D-fructose]",functional response in FLIPR assay,[4],do not show any functional response
"N[C@H](Cc1c[nH]c2ccccc12)C(=O)O [D-Trp, D-tryptophan]",EC50,[5]; 0 μM lactisole,370 ± 20 µM
same,EC50,[5]; 10 μM lactisole,600 µM
same,EC50,[5]; 20 μM lactisole,940 ± 80 µM
N[C@H](Cc1c[nH]c2ccccc12)C(=O)O [D-tryptophan],effect of other sweeteners on human T1R1/T1R3 activities,[6],no effect
"N[C@@H](CCC(=O)O)C(=O)O [L-glutamate, reference compound]",activation of T1R1/T1R3 receptor by L-amino acids,"[1]; clone I-17, with and without IMP",significantly activated
same,percentage of cells that responded,[1]; induced cells (inducible T1R1/T1R3 expression),approximately 80%
same,percentage of cells that responded,[7]; transiently transfected cells,approximately 10%
"C=C1C[C@@]23CC[C@H]4[C@@](C)(CCC[C@@]4(C)C(=O)O[C@@H]4O[C@H](CO)[C@@H](O)[C@H](O)[C@H]4O)[C@@H]2CC[C@]1(O[C@@H]1O[C@H](CO)[C@@H](O)[C@H](O)[C@H]1O[C@@H]1O[C@H](CO)[C@@H](O)[C@H](O)[C@H]1O)C3 [Steviocide, stevioside]",effect of control sweeteners on activities of T1R1/T1R3 umami taste receptor,[6],do not affect
COC(=O)[C@H](Cc1ccccc1)NC(=O)[C@@H](N)CC(=O)O [aspartame] (H-Asp-Phe-OMe),effect of other sweeteners on human T1R1/T1R3 activities,[6],no effect
O=S(=O)(O)NC1CCCCC1 [cyclamate],effect of compound alone on T1R1/T1R3,[6]; alone,no effect
same,effect on T1R1/T1R3 activity in the presence of L-glutamate,[6]; threshold level of L-glutamate (4 mM),enhanced the activity of the receptor
N[C@@H](CCC(=O)O)C(=O)O [glutamate],maximal percentage of responding cells,[7]; glutamate alone,approximately 5%
same,maximal percentage of responding cells,[7]; glutamate plus 0.2 mM IMP,approximately 10%
"COc1ccc(OC(C)C(=O)O)cc1 (stereo not drawn) [lactisole, Lactisole]",effect on endogenous muscarinic acetylcholine receptor response,[8],not inhibited; also recorded: no effect
same,effect on mouse bitter receptor mT2R5,[9],no effect
same,"detection thresholds for sweet, umami and salt taste stimuli",[10],dramatically increased detection thresholds for sweet and umami but not salt taste stimuli
O=C1NS(=O)(=O)c2ccccc21 [saccharin],effect of other sweeteners on human T1R1/T1R3 activities,[6],no effect
same,effect of control sweeteners on activities of T1R1/T1R3 umami taste receptor,[6],do not affect
OC[C@H]1O[C@@](CO)(O[C@H]2O[C@H](CO)[C@@H](O)[C@H](O)[C@H]2O)[C@@H](O)[C@@H]1O [sucrose],effect of other sweeteners on human T1R1/T1R3 activities,[6],no effect
same,EC50,[5]; 0 μM lactisole,19400 ± 900 µM
same,EC50,[5]; 10 μM lactisole,24700 ± 1000 µM
same,EC50,[5]; 20 μM lactisole,31300 ± 300 µM
